# From PMC11602703 (Frontiers in Pharmacology, 2024)
# Values joined by “and” are separate entries in the source; they are usually repeats but may differ in a detail not shown here. Equal values may be shown once. “Also recorded” adds a separate entry of the source. Read-outs that look alike come from different tables or passages of the source.
# What was measured:
# [1] = system: ABC transporters (P-glycoprotein, P-gp) and BCRP; conditions: in vitro; ref Vaidyanathan et al., 2016; cited from earlier work
# HCT116 cells [2] = test: Cell cycle analysis by flow cytometry (PI), HCT116; type: cell-based, human; conditions: for sub-G0/G1, HCT116 cells, plus SAINT-Protein: 72 h, transfected with SAINT-Protein; for % of cells G0/G1, HCT116 cells / % of cells G2/M, HCT116 cells / % of cells S, HCT116 cells / % of cells sub G0/G1, HCT116 cells: 72 hr, E7 […], 5FU 5µM, with or without SAINT-Protein
# Experimental: (§1) A slight opalescence indicates optimal mixing of the components. […] All experiments were conducted in duplicate. […] Quantitative measurements of the cell cycle phase distribution were performed by flow cytometry. Cells were then suspended in 0.5 mL of hypotonic fluorochrome solution (50 μg/mL PI, 0.1% sodium citrate, 0.1% Triton X-100). […] The percentages of nuclei in the different phases of the cell cycle (G0/G1, S and G2/M) were calculated using a DNA cell cycle analysis software (Cell-Fit, Becton Dickinson). A minimum of 10^4 cells was analyzed for each sample.
# A2780 cells [3] = test: Cell cycle analysis by flow cytometry (PI), A2780; type: cell-based, human; conditions: 72 hr, Supplementary Figure S1
# Experimental: as §1
# recombinant hTS = target: T1, recombinant hTS (Homo sapiens, UniProt P04818); test: hTS enzyme inhibition, spectrophotometric assay at 340 nm; type: biochemical; conditions: for IC50: IC50 Recombinant hTS, 100 nM hTS, 50 µM mTHF, 110 µM dUMP, 60 min incubation at 37°C, standard error ±20%; for Ki: Ki (text of b40)
# T1 construct: made in house; host or cells: E. coli BL21 (DE3), pQE80L plasmid
# T1 sequence (P04818 whole entry): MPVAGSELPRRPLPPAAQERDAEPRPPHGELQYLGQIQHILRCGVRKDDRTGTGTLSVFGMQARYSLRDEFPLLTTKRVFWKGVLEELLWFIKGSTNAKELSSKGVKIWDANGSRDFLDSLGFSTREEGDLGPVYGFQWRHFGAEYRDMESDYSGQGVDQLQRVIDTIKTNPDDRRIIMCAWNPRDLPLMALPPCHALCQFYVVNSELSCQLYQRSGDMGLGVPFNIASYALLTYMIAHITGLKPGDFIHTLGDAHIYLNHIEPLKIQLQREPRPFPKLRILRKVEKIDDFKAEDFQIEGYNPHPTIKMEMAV
# IGROV-1 cells = test: cells; type: cell-based; conditions: Homo sapiens, IGROV-1, 72 h, read-out: Cellular IC50 values IGROV-1, 72 h-treatment, compound alone
# HT29 cells = test: Cell growth, crystal violet assay, HT29; type: cell-based, human; conditions: for effect of SAINT-Protein transfection on cell survival, HT29: 72 h, Figure 5C
# [4] = system: ovarian and colorectal cancer cell lines (A2780, A2780/CP, IGROV-1, HT29, HCT116); test: Cell growth, crystal violet assay, statements over several cancer cell lines; type: cell-based, human; conditions: for IC50: Homo sapiens
# A2780/CP cells = test: Cell growth, crystal violet assay, A2780/CP; type: cell-based, human
# human pancreatic cancer = conditions: compared with 5-FU; ref Costantino et al., 2022; cited from earlier work
# A2780 cells [5] = test: Cell growth, crystal violet assay, A2780; conditions: for IC50: Homo sapiens, A2780, 72 h
# HCT116 cells [6] = test: Cell growth, crystal violet assay, HCT116; type: cell-based; conditions: Homo sapiens, HCT-116, 72 h, read-out: Cellular IC50 values HCT116
# P-gp = conditions: co-treatment with vincristine; ref Robey et al., 2004; Shafran et al., 2005; cited from earlier work
# [7] = read-out: cancer cell growth inhibition potency (range over cell lines)
smiles,measurement,setting,value
"COc1cc2c(cc1OC)CN(CCc1ccc(NC(=O)c3cccc4c(=O)c5cccc(OC)c5[nH]c34)cc1)CC2 [Elacridar, N-[4-[2-(6,7-dimethoxy-3,4-dihydro-1H-isoquinolin-2-yl)ethyl]phenyl]-5-methoxy-9-oxo-10H-acridine-4-carbox amide]",concentration reversing multidrug resistance,[1],20 to 100 nM
"O=c1[nH]cc(F)c(=O)[nH]1 [Compound 5-FU, 5-fluorouracil, reference compound]","sub-G0/G1, HCT116 cells, plus SAINT-Protein",HCT116 cells [2],about 40%
same,"% of cells G0/G1, HCT116 cells",HCT116 cells [2],54.45%
same,"% of cells G2/M, HCT116 cells",HCT116 cells [2],14.75%
same,"% of cells S, HCT116 cells",HCT116 cells [2],12.55%
same,"% of cells sub G0/G1, HCT116 cells",HCT116 cells [2],15.1%
same,"effect of SAINT-Protein transfection on sub-G0/G1 phase, A2780 cells",A2780 cells [3],did not benefit from SAINT-Protein transfection
"O=c1[nH]c(=O)n([C@H]2C[C@H](O)[C@@H](COP(=O)(O)O)O2)cc1F [FdUMP, 5-fluorodeoxyuridine-5′-monophosphate, reference compound]",IC50,recombinant hTS,0.8 µM
"NC(=O)c1ccc(NC(=O)C(Sc2ccc([N+](=O)[O-])cc2)c2ccccc2)cc1 (stereo not shown) [Compound E5, 2-Phenyl-2-(4-nitrophenylthio)-N-(4-carboxamidophenyl)acetamide]",Ki,recombinant hTS,40 µM
same,IC50,IGROV-1 cells,69.9 ± 8 µM
same,"effect of SAINT-Protein transfection on cell survival, HT29",HT29 cells,no significant effect
same,interaction with elacridar (synergism quotient analysis),"[4]; 200 nM elacridar 2 h pre-treatment, 72 h, A2780, IGROV-1, HT29",synergized by elacridar in all cell lines tested
same,"effect of SAINT-Protein transfection on cell killing, A2780 and A2780/CP","[4]; A2780 and A2780/CP, 72 h, Figure 5A, B",not significantly enhanced
same,IC50,[4]; [7],25 to 70 µM
"CS(=O)(=O)c1ccc2nc(NC(=O)C(Sc3ccc([N+](=O)[O-])cc3)c3ccccc3)sc2c1 (stereo not shown) [Compound E7, phenyl-2-(4-nitrophenylthio)-N-(6-methanesulfonylbenzothiazol-2-yl)acetamide]",Ki,recombinant hTS,7 µM
same,IC50,"A2780/CP cells; Homo sapiens, A2780C/P, 72 h, read-out: IC50 A2780/CP cells, without SAINT-Protein (Figure 4A)",15.3 ± 5 µM
same,"SQ with SAINT-Protein, A2780/CP cells, 5 μM",A2780/CP cells; compound 5 μM + SAINT-Protein,1.54±0.45
same,"SQ with SAINT-Protein, A2780/CP cells, 12 μM",A2780/CP cells; compound 12 μM + SAINT-Protein,1.34±0.1
same,"SQ with SAINT-Protein, A2780/CP cells, 25 μM",A2780/CP cells; compound 25 μM + SAINT-Protein,1.15±0.03
same,"effect of SAINT-Protein transfection on cell survival, HT29",HT29 cells,more favoured by the presence of SAINT-Protein
same,IC50,[4]; [7],10 to 37 µM
same,"sub-G0/G1, HCT116 cells, plus SAINT-Protein",HCT116 cells [2],~60%
same,"% of cells G0/G1, HCT116 cells",HCT116 cells [2],58.15%
same,"% of cells G2/M, HCT116 cells",HCT116 cells [2],11.67%
same,"% of cells S, HCT116 cells",HCT116 cells [2],10.65%
same,"% of cells sub G0/G1, HCT116 cells",HCT116 cells [2],17.53%
same,"effect of SAINT-Protein transfection on sub-G0/G1 phase, A2780 cells",A2780 cells [3],significantly increased the percentage of cells in the sub-G0/G1 phase
same,anticancer profile in mouse model,human pancreatic cancer,superior to that of 5-FU
same,IC50,"A2780 cells [5]; read-out: IC50 A2780 cells, with SAINT-Protein (Figure 4A)",5.6 µM
same,IC50,"A2780 cells [5]; read-out: IC50 A2780 cells, without SAINT-Protein (Figure 4A)",10.9 µM
same,"SQ with SAINT-Protein, A2780 cells, 5 μM",A2780 cells [5]; compound 5 μM + SAINT-Protein,1.10±0.05
same,"SQ with SAINT-Protein, A2780 cells, 12 μM",A2780 cells [5]; compound 12 μM + SAINT-Protein,1.07±0.01
same,"SQ with SAINT-Protein, A2780 cells, 25 μM",A2780 cells [5]; compound 25 μM + SAINT-Protein,0.90±0.1
O=C(CSc1ccc([N+](=O)[O-])cc1)Nc1ccc(C(=O)O)cc1 [Compound E1],IC50,recombinant hTS,8 µM and 8.2 µM
same,IC50,"HT29 cells; Homo sapiens, HT-29, 72 h, read-out: Cellular IC50 values HT29",> 100 µM
same,IC50,HCT116 cells [6],> 100 µM
same,cellular activity at 100 µM,"[4]; 100 µM, five cancer cell lines of Table 1",no observed cellular activity
same,IC50,"[4]; read-out: IC50 with SAINT-Protein, OC cell lines",20 to 40 µM
same,"effect of SAINT-Protein transfection on cytotoxic activity, tested cell lines",[4]; with SAINT-Protein versus compound alone,benefits considerably; also recorded: showed cytotoxic activity when associated with the SAINT-Protein
"COc1cc2c(cc1OC)CN(CCc1ccc(NC(=O)c3cc(OC)c(OC)cc3NC(=O)c3cnc4ccccc4c3)cc1)CC2 [Tariquidar, 3-Quinolinecarboxamide, N-[2-[[[4-[2-(3,4-dihydro-6,7-dimethoxy-2(1H)-isoquinolinyl)ethyl]phenyl]amino]carbonyl]-4,5-dimethoxyphenyl]-]",concentration giving complete reversal of resistance,P-gp,25 to 80 nM
